Results: patent US20260191793A1, “HBV SPECIFIC EXOSOMES AND USES THEREOF” (priority 2022, published 2026)

Tested on: HBV replication in HepDE19 cells
Test: Suppression of HBV replication in HepDE19 cells by synthetic gRNA/Cas9 RNPs, one-time transfection (ELISA, real-time PCR, RNAscope)
Type: cell-based, Hepatitis B virus (HBV)
Settings: Tet-free medium 3 days; for HBV mRNA / HBV RNA level (RNAscope) / cccDNA level / pgRNA level / total HBV DNA level: HepDE19 cells, vs gRNAc; for cccDNA level: one-time transfection; for cccDNA level / pgRNA level / total HBV DNA level: real-time PCR; for HBeAg level / HBsAg level: HepDE19 supernatant, ELISA, vs scrambled gRNAc
Procedure: The HepDE19 cell line is tetracycline-controlled HBV stable cells maintained in the presence of 500 μg/ml G418 and 1 μg/ml tetracycline (Tet). Upon withdrawing Tet from the culture fluid of HepDE19 cells, pgRNA transcription, HBV DNA replication, cccDNA formation, and HBV e antigen (HBeAg) production gradually increase in a time-dependent manner. To induce HBV replication, the cells were cultured in a Tet-free medium for 0-10 days, followed by measuring the expression of HBV antigens, HBV cccDNA, and pgRNA using methods previously described. For cell transfection, HepDE19 cells were cultured in Tet-free medium for 2 days. The gRNA/Cas9 RNPs and Lipofectamine CRISPRMAX reagents were prepared in two separate tubes following the manufacturer's instructions. Briefly, 125 ng gRNA, 500 ng GeneArt Platinum Cas9 nuclease, and 1 μl Cas9 Plus reagents were mixed in one tube, and 1.5 μl Lipofectamine CRISPRMAX reagent was added in a separate tube. The gRNA/Cas9 RNP solution was then transferred to the tube containing the Lipofectamine CRISPRMAX solution. The mixture was vortexed and incubated at 25° C. for 10 min to form the gRNA/Cas9 RNP/Lipofectamine CRISPRMAX complex. Meanwhile, HepDE19 cells were seeded in a 24-well plate at 2.0×10^5 cells per well. The gRNA/Cas9 RNP/Lipofectamine CRISPRMAX complex was then added directly to the cell suspension, and the cells were incubated for 72 h, followed by assessing HBV replication with Tet-free medium as described above.
The levels of HBsAg and HBeAg in the supernatants of cell cultures were determined by ELISA (Cat #KA0286 and NBP2-600029, Novus Biologicals, Littleton, CO) according to the manufacturer's protocol. The optical density of antigen levels was measured at 450 nm using a microplate spectrophotometer. The samples were run in triplicate, and the experiments were repeated at least three times.
Total RNA was extracted from the cell pellets by the RNeasy Mini kit (Cat #74104, QIAGEN, Germantown, MD), and 1 μg RNA was converted to cDNA using the Applied Biosystems High-Capacity cDNA Reverse Transcription Kit (Cat #43-688-14, ThermoFisher, Waltham, MA). Quantitative real-time PCR (real-time-qPCR) was performed using iTaq Universal SYBR Green Supermix (Cat #1725124, Bio-Rad, Hercules, CA). The PCR primers were: HBV mRNA forward, 5′-[…]-3′ (SEQ ID NO: 52), reverse, 5′-[…]-3′ (SEQ ID NO: 53); HBV pgRNA forward 5′-[…]-3′ (SEQ ID NO: 54), reverse 5′-[…]-3′ (SEQ ID NO: 55); and GAPDH forward 5′-[…]-3′ (SEQ ID NO: 56), reverse 5′-[…]-3′ (SEQ ID NO: 57). The gene expression levels were determined by the […] method and values were normalized to GAPDH expression as an internal control.
Total and protein-free HBV DNAs were extracted from whole cell lysate using the Hirt DNA method according to a previously published protocol. For HBV cccDNA analysis, the protein-free DNA was treated with 10 units of T5 exonuclease (NEB) at 37° C. for 30 min, followed by 95° C. for 5 min, and diluted 4-fold with nuclease-free water. Next, the cccDNA was cleaned with a DNA clean and concentrator kit (ZYMO Research, Irvine, CA) and used for PCR. HBV total DNA and cccDNA were analyzed by real-time PCR using a TaqMan PCR assay. The primers and probe used to amplify HBV total DNA were: HBV total DNA forward: 5′-[…]-3′ (SEQ ID NO: 58), reverse 5′-[…]-3′ (SEQ ID NO: 59), and internal probe: 5′-FAM-[…]-TAMRA-3′ (SEQ ID NO: 60). The primers and probe used to amplify HBV cccDNA (Genotype D, subtype ayw) were: forward: 5′-[…]-3′ (SEQ ID NO: 61), reverse 5′-[…]-3′ (SEQ ID NO: 62), and internal probe 5′-FAM-[…]-TAMRA-3′ (SEQ ID NO: 63). The PCR reactions were performed in 20 μl volumes and contained 2 μl DNA. The PCR conditions were: 95° C. for 10 min, followed by 45 cycles of 95° C. for 15 s and 64° C. for 30 s. The DNA levels were determined by the […] method and values were normalized to the control group. […]

GTTATCGCTGGATGTGTCTGNGG (guide GUUAUCGCUGGAUGUGUCUGNGG; complexed with Cas9 protein, chemistry not fully specified) [gRNA5, tested as synthetic gRNA/Cas9 RNP]
significant decreases: HBV mRNA / HBV RNA level (RNAscope) | cccDNA level | pgRNA level | total HBV DNA level | HBeAg level | HBsAg level

GGTCTCCATGCGACGTGCAGNGG [gRNA9]
significant decreases: HBV mRNA / HBV RNA level (RNAscope) | cccDNA level | pgRNA level | total HBV DNA level | HBeAg level | HBsAg level
